Measured values from US20200093838A1, “METHODS FOR TREATING AND PREVENTING ALLERGIES AND ACUTE ALLERGIC RESPONSES” (priority 2015, published 2020).
“Also recorded” adds a separate entry of the source.

Columns and labels:
Tbx21 = experiment: qPCR gene expression of Tbx21 in CD8+ T cells; format: cell-based, mouse; conditions: IL-4 and 1,25D3 present during CD8+ T-cell differentiation
Description: (§1) J. Allergy Clin. Immunol. 121, 864-871 e864 (2008)).

Cyp11a1 [1] = experiment: qPCR gene expression of Cyp11a1 in CD8+ T cells; format: cell-based, mouse; conditions: 100 nM or 1 μM during differentiation in IL-2+IL-4
Description: as §1

CD8+ T cells [2] = experiment: Intracellular staining (flow cytometry) of IFN-γ and IL-13 in CD8+ T cells differentiated in IL-2 or IL-2+IL-4; format: cell-based, mouse
Experimental: as §1
Flow cytometry analyses: For intracellular staining, 1×10^6/ml cells were washed twice with PBS containing 1% BSA, stimulated with 1 μg/ml […] in the presence of 2 μM monensin at 37° C. for 4 hours. After fixation with 4% paraformaldehyde (Electron Microscopy Sciences, Hatfield, Pa.) and permeabilization with 0.1% saponin (Sigma-Aldrich, St. Louis, Mo.), cells were washed twice with PBS containing 1% BSA, then incubated with anti-mouse CD16/CD32 (2.4G2, BD Bioscience, San Jose, Calif.) at 4° C. for 5 minutes, then stained with FITC labeled anti-mouse IFN-γ (XMG 1.2, eBioscience, San Diego, Calif.) and PE-labeled anti-mouse IL-13 (eBio13A, eBioscience, San Diego, Calif.). […] J. Allergy Clin. Immunol. 121, 864-871 e864 (2008)).

Gata3 = experiment: qPCR gene expression of Gata3 in CD8+ T cells; format: cell-based, mouse; conditions: IL-4 and 1,25D3 present during CD8+ T-cell differentiation
Description: as §1

Cyp11a1 [3] = experiment: CYP11A1 immunoblot analyses of CD8+ T cells; format: cell-based, mouse; conditions: 100 nM or 1 μM during differentiation in IL-2+IL-4
Description: J. Allergy Clin. Immunol. 121, 864-871 e864 (2008)). […] Samples were run by sodium dodecyl sulfate polyacrylamide gel electrophoresis (SDS-PAGE) and transferred to nitrocellulose membranes. […] Horseradish peroxidase-conjugated anti-rabbit IgG (GE Healthcare, Hertfordshire, UK) was used to detect CYP11A1 protein. Mouse monoclonal anti-β-actin antibody (Sigma-Aldrich, St. Louis, Mo.) was used as an internal control. Immunoreactive bands were quantified by densitometric quantification of autoradiographs using Image J (NIMH, Bethesda, Md.), and expressed as relative CYP11A1 normalized to β-actin (Sigma-Aldrich, St. Louis, Mo.).

[4] = tested on: sensitized and challenged CD8-deficient mice; experiment: Secondary allergen challenge model with adoptive transfer of 1,25D3-treated CD8+ T cells: airway function (AHR); format: in vivo, mouse; conditions: transfer of IL-2-differentiated CD8+ T cells cultured with 1,25D3 (100 nM or 1 μM)
Experimental: 190, 4056-4065 (2013).; Ohnishi, H., et al. […] J. Allergy Clin. Immunol. 121, 864-871 e864 (2008)) with some modifications. CD8-deficient mice were sensitized with 20 μg of OVA (Calbiochem, La Jolla, Calif.) emulsified in 2.25 mg of alum (AlumImuject; Pierce, Rockford, Ill.) on days 0 and 14 by intraperitoneal injection. […] Omron Healthcare, Kyoto, JP). […] Airway function was measured and samples were collected 48 hours after the secondary challenge. […] Am. J. Respir. Crit. Care Med. 163, 173-184 (2001)). […] J. Allergy Clin. Immunol. 121, 864-871 e864 (2008)) by measuring changes in airway resistance (RL) in response to increasing doses of inhaled methacholine (MCh, Sigma-Aldrich, St. Louis, Mo.). Data were presented as percentage change from the baseline RL values after saline inhalation.

Cyp11a1 [5] = experiment: ELISA for pregnenolone in supernatants of CD8+ T cells (CYP11A1 enzymatic activity); format: cell-based, mouse; conditions: cells cultured in the presence of 1,25D3 (100 nM or 1 μM)
Description: as §1

[6] = tested on: CD4+ T cells from steroid-resistant asthmatics; conditions: 500 nM; cited from earlier work
[7] = tested on: sensitized and challenged CD8-deficient mice; experiment: Secondary allergen challenge model with adoptive transfer: bronchoalveolar lavage (BAL) fluid analyses; format: in vivo, mouse
Experimental: 190, 4056-4065 (2013).; Ohnishi, H., et al. […] J. Allergy Clin. Immunol. 121, 864-871 e864 (2008)) with some modifications. CD8-deficient mice were sensitized with 20 μg of OVA (Calbiochem, La Jolla, Calif.) emulsified in 2.25 mg of alum (AlumImuject; Pierce, Rockford, Ill.) on days 0 and 14 by intraperitoneal injection. […] Omron Healthcare, Kyoto, JP). […] Airway function was measured and samples were collected 48 hours after the secondary challenge. […] Am. J. Respir. Crit. Care Med. 163, 173-184 (2001)). Bronchoalveolar lavage (BAL) fluid analyses: After measurement of AHR, lungs were lavaged via the tracheal tube with 1 ml of HBSS. […] J. Allergy Clin. Immunol. 121, 864-871 e864 (2008)). […] J. Allergy Clin. Immunol. 121, 864-871 e864 (2008)).

[8] = tested on: sensitized and challenged CD8-deficient mice; experiment: Secondary allergen challenge model with adoptive transfer: lung histology (PAS); format: in vivo, mouse; conditions: recipients of 1,25D3-treated CD8+ T cells
Experimental: 190, 4056-4065 (2013).; Ohnishi, H., et al. […] J. Allergy Clin. Immunol. 121, 864-871 e864 (2008)) with some modifications. CD8-deficient mice were sensitized with 20 μg of OVA (Calbiochem, La Jolla, Calif.) emulsified in 2.25 mg of alum (AlumImuject; Pierce, Rockford, Ill.) on days 0 and 14 by intraperitoneal injection. […] Omron Healthcare, Kyoto, JP). […] Airway function was measured and samples were collected 48 hours after the secondary challenge. […] Am. J. Respir. Crit. Care Med. 163, 173-184 (2001)). Lung histology: […] Paraffin sections (5-μm thick) were stained with periodic acid-Schiff (PAS).

CD8+ T cells [9] = experiment: Cell viability (total cell numbers) during CD8+ T cell differentiation; format: cell-based, mouse; conditions: IL-2 or IL-2+IL-4; 100 nM or 1 μM; days 0 and 4
Description: Data (mean±SEM) are from five experiments. **p<0.01 compared to the IL-2 group on day 4.
as §1

[10] = tested on: sensitized and challenged CD8-deficient mice; conditions: inhibition of the enzymatic activity of CYP11A1; cited from earlier work
Cyp11a1 [11] = conditions: inhibition of the enzymatic activity of CYP11A1; cited from earlier work
[12] = IL-2 + IL-4 + TCR + VitD (100 nM)
[13] = IL-2 + IL-4 + TCR + VitD (100 nM), listed as VitD
[14] = IL-2 + IL-4 + TCR + VitD (1 μM)
[15] = cultured with SIINFEKL and IL-2+IL-4, 1,25D3 100 nM, 1 μM during differentiation
[16] = compared to recipients of untreated cells, 1,25D3 100 nM or 1 μM

SMILES: C=C1/C(=C\C=C2/CCC[C@]3(C)[C@@H]([C@H](C)CCCC(C)(C)O)CC[C@@H]23)C[C@@H](O)C[C@@H]1O [1,25D3, 1,25-dihydroxy vitamin D3]
- Tbx21 gene expression (Tbx21): only marginally altered; also recorded: affected
- CYP11A1 transcript levels (Cyp11a1 [1]): decreased
- cytokine profiles (IFN-γ and IL-13) of differentiated CD8+ T cells (CD8+ T cells [2]; 1,25D3 (100 nM or 1 μM) added only during antigen (SIINFEKL) re-stimulation phase, last 4 hours, IL-2+IL-4): does not alter; also recorded: unaffected
- % of positive cells, IFN-γ+ (CD8+ T cells [2]; [12]): 24.5±4.8%
- % of positive cells, IFN-ν+ IL-13+ (CD8+ T cells [2]; [12]): 4%
- % of positive cells, IFN-ν− IL-13− (CD8+ T cells [2]; [12]): 55.1%
- % of positive cells, IL-13+ (CD8+ T cells [2]; [12]): 11.3±4.8%
- % of positive cells, IFN-γ+ (CD8+ T cells [2]; [13]): 24.5%
- % of positive cells, IL-13+ (CD8+ T cells [2]; [13]): 11.3%
- % of positive cells, IFN-γ+ (CD8+ T cells [2]; [14]): 30.6%
- % of positive cells, IFN-ν+ IL-13+ (CD8+ T cells [2]; [14]): 3.5%
- % of positive cells, IFN-ν− IL-13− (CD8+ T cells [2]; [14]): 53.9%
- % of positive cells, IL-13+ (CD8+ T cells [2]; [14]): 8.3%
- % of positive cells, IFN-γ+ (CD8+ T cells [2]; IL-2 + IL-4 + VitD (100 nM)): 2.2%
- % of positive cells, IFN-ν+ IL-13+ (CD8+ T cells [2]; IL-2 + IL-4 + VitD (100 nM)): 0.2%
- % of positive cells, IFN-ν− IL-13− (CD8+ T cells [2]; IL-2 + IL-4 + VitD (100 nM)): 92.7%
- % of positive cells, IL-13+ (CD8+ T cells [2]; IL-2 + IL-4 + VitD (100 nM)): 4.6%
- % of positive cells, IFN-γ+ (CD8+ T cells [2]; IL-2 + IL-4 + VitD (1 μM)): 2.7%
- % of positive cells, IFN-ν+ IL-13+ (CD8+ T cells [2]; IL-2 + IL-4 + VitD (1 μM)): 0.2%
- % of positive cells, IFN-ν− IL-13− (CD8+ T cells [2]; IL-2 + IL-4 + VitD (1 μM)): 92.9%
- % of positive cells, IL-13+ (CD8+ T cells [2]; IL-2 + IL-4 + VitD (1 μM)): 3.8%
- % of positive cells, IFN-γ+ (CD8+ T cells [2]; IL-2 + TCR + VitD (100 nM)): 76.8%
- % of positive cells, IFN-ν+ IL-13+ (CD8+ T cells [2]; IL-2 + TCR + VitD (100 nM)): 0.4%
- % of positive cells, IFN-ν− IL-13− (CD8+ T cells [2]; IL-2 + TCR + VitD (100 nM)): 22.6%
- % of positive cells, IL-13+ (CD8+ T cells [2]; IL-2 + TCR + VitD (100 nM)): 0.1%
- % of positive cells, IFN-γ+ (CD8+ T cells [2]; IL-2 + TCR + VitD (1 μM)): 76.2%
- % of positive cells, IFN-ν+ IL-13+ (CD8+ T cells [2]; IL-2 + TCR + VitD (1 μM)): 0.4%
- % of positive cells, IFN-ν− IL-13− (CD8+ T cells [2]; IL-2 + TCR + VitD (1 μM)): 23.7%
- % of positive cells, IL-13+ (CD8+ T cells [2]; IL-2 + TCR + VitD (1 μM)): 0.1%
- % of positive cells, IFN-γ+ (CD8+ T cells [2]; IL-2 + VitD (100 nM)): 3.1%
- % of positive cells, IFN-ν+ IL-13+ (CD8+ T cells [2]; IL-2 + VitD (100 nM)): 0%
- % of positive cells, IFN-ν− IL-13− (CD8+ T cells [2]; IL-2 + VitD (100 nM)): 96.8%
- % of positive cells, IL-13+ (CD8+ T cells [2]; IL-2 + VitD (100 nM)): 0.2%
- % of positive cells, IFN-γ+ (CD8+ T cells [2]; IL-2 + VitD (1 μM)): 4.3%
- % of positive cells, IFN-ν+ IL-13+ (CD8+ T cells [2]; IL-2 + VitD (1 μM)): 0%
- % of positive cells, IFN-ν− IL-13− (CD8+ T cells [2]; IL-2 + VitD (1 μM)): 95.8%
- % of positive cells, IL-13+ (CD8+ T cells [2]; IL-2 + VitD (1 μM)): 0.2%
- IFN-γ+ cells (change) (CD8+ T cells [2]; [15]): increase
- percentage of IL-13+ cells (change) (CD8+ T cells [2]; [15]): dose-dependent decrease
- IFN-γ-producing capacity of Tc1 cells (CD8+ T cells [2]; differentiated in IL-2 alone, 1,25D3 added during differentiation): not affected
- Gata3 gene expression (Gata3): only marginally altered; also recorded: affected
- CYP11A1 protein levels (Cyp11a1 [3]): decreased
- airway hyperresponsiveness (AHR) [4]: fails to induce; also recorded: failed to restore
- pregnenolone levels in supernatants (CYP11A1 enzymatic activity) (Cyp11a1 [5]): markedly reduced; also recorded: decreased
- in vitro effectiveness in CD4+ T cells from steroid-resistant asthmatics [6]: effective
- IL-4 level in BAL fluid [7, 16]: decreased; also recorded: significantly lower
- IL-5 level in BAL fluid [7, 16]: decreased; also recorded: significantly lower
- IL-13 level in BAL fluid [7, 16]: decreased; also recorded: significantly lower
- airway inflammation (cell composition in BAL fluid) ([7]; transfer of IL-2-differentiated CD8+ T cells cultured with 1,25D3 (100 nM or 1 μM)): failed to restore
- inflammation in lung sections [8]: less inflammation
- numbers of PAS+ mucus-containing goblet cells [8]: prevents; also recorded: significantly decreased numbers
- effect on cell viability (CD8+ T cells [9]): not altered; also recorded: no significant effect

SMILES: CCC1(c2ccc(N)cc2)CCC(=O)NC1=O (stereo not drawn) [AMG, aminoglutethimide]
- lung allergic responses in sensitized and challenged CD8-deficient mice [10]: failure to restore
- conversion of CD8+ T cells to IL-13 production (Cyp11a1 [11]): inhibitory effects
